Key:
[1] = test system: IMQ-induced Psoriasis-Like Skin lesions; experiment: IMQ-induced psoriasis-like skin lesions; assay type: in vivo, mice
Protocol: Mice were divided into control, psoriasis and psoriasis plus treatment groups, (n=8 in each group). Psoriasis were induced by topical application of imiquimod cream (62.5 mg) on shaved dorsal skin for seven consecutive days. Vaseline was used in control group. There were four treatment groups: three doses of R-salbutamol (R-Sal) (0.5 mg, 1 mg, 2 mg/kg) and Dexamethasone (1 mg/kg) as positive control. All the treatments and same volume of saline (in control group) were administered orally. In some experiment, R-bambuterol (long-last beta2 agonist) was used as an additional treatment group (n=3). Psoriasis Area Severity Index were used for evaluation. Each of the scores for erythema, scaling and skin thickness were measured separately and then group together as a calculative score. (FIG. 2)

Janus kinase 2 (JAK2) = experiment: JAK2 mRNA expression in psoriasis mice; assay type: in vivo; settings: plasma of psoriasis mice, dose-response fashion
Text: There was enhanced expression of mRNA of Janus kinase 2 (JAK2), a non-receptor tyrosine kinase, and the signal transducer and activator of transcription protein (Stat 2) in the plasma of psoriasis mice in comparison of control, Indicating an increase of JAK2 and Stat 2 proteins. These over expression of mRNA was inhibited by R-salbutamol in a dose-response fashion. (FIG. 3 left & right)

[2] = test system: DNCB induced allergic contact dermatitis; experiment: DNCB induced allergic contact dermatitis model (eczema); assay type: in vivo, mice
Protocol: Mice was shaved at abdominal area DNCB (100 μL 0.5%) is dissolved and applied to the shaved skin to induce Atopica dermatitis for 2 consecutive days. At day 8th, DNCB was applied to both inner and outer surfaces of ears to induce eczema. Treatment of R-salbutamol and indomethacin were given orally at day 1st for consecutive 8 days. The mice were scarified at day 9th for examination and evaluation. Mice were divided into four groups (n=8), namely A, Control; B. Eczema (DNCB); C. Eczema plus R-Salbutamol of 0.05, 0.1 or 0.2 mg/kg; D. Eczema plus indomethacin of 5 mg/kg. The inflammation scores were evaluated according to swelling, erythema, scratch and thickness of both ears. [table]

[3] = test system: knee joints (articular cartilage, meniscus); experiment: Damage of knee joints in DSS induced IBD mice; assay type: in vivo; settings: compared with untreated DSS mice
Text: In one embodiment, in DSS induced IBD mice, there was also a damage of knee joints. The articular cartilage structure became thinner and partially destroyed. The chondrocytes were degenerated, decreased and clustered. The meniscuses were damaged and lost its structural integrity. In X-ray, the layer of articular cartilage was thinner and bone structure was decreased. […] The articular cartilage and bone structure increased toward normal.

[4] = test system: DSS induced sub-acute colitis; experiment: Prolonged (two weeks) treatment in DSS induced sub-acute colitis; assay type: in vivo, mice; settings: evaluation at 23rd day, salbutamol 1 mg/kg, bambuterol 10 mg/kg
Text: Same as example 2, except. 1), Two Weeks Treatment within a Three Weeks of Study
DSS was removed from drinking water at the end of 1st week. The treatments were started at 1st day for consecutive 14 days (2 weeks). Only drinking water given for the 3rd week. The evaluation and examination were made at 23rd day as did in example 1.

[5] = oral 8 days, R-Salbutamol 0.05, 0.1 or 0.2 mg/kg, indomethacin 5 mg/kg

SMILES: CC(C)(C)NC[C@H](O)c1ccc(O)c(CO)c1 [R-S, R-salbutamol]
- Psoriasis Area Severity score, high dose ([1]; R-salbutamol 2.0 mg/kg oral): best effects for all the scores
- dose dependence of Psoriasis Area Severity score ([1]; R-salbutamol 0.5, 1, 2 mg/kg oral): dose-dependent response
- histology of psoriasis skin lesions (HE) ([1]; dorsal skin, IMQ-induced psoriasis mice): mostly recovered
- Psoriasis Area Severity score ([1]; oral, R-salbutamol 0.5, 1, 2 mg/kg, Dexamethasone 1 mg/kg, compared with psoriasis group): significantly reduced
- over expression of mRNA of JAK2 (Janus kinase 2 (JAK2)): inhibited
- ear skin histopathology ([2]; R-Salbutamol 0.05 mg/kg): little effects on eczema
- ear skin histopathology ([2]; R-Salbutamol 0.1 mg/kg): significant reduced monocyte infiltration
- ear skin histopathology ([2]; R-salbutamol 0.2 mg/kg): further reductions in monocyte infiltration and epidermal keratinization
- erythema score of both ears [2, 5]: significantly alleviated or prevented
- thickness score of both ears [2, 5]: significantly alleviated or prevented
- eczema histology and inflammatory infiltration ([2]; oral 8 days, dose-dependent response, indomethacin 5 mg/kg): significantly improved
- damage of articular cartilage, meniscus and bone structure of knee joints [3]: significantly ameliorated
- DAI, in words [4]: return toward normal
- histological score, in words [4]: return toward normal
